Data reported in US20230286925A1, “PHENYL TRIAZOLE MLL1-WDR5 PROTEIN-PROTEIN INTERACTION INHIBITOR” (HUYABIO International, LLC, priority 2022, published 2023).
Read-outs that look alike come from different tables or passages of the source.

Columns and labels:
hERG = hERG (Homo sapiens (Human), UniProt Q12809); assay: hERG assay (radioligand membrane binding)
Experimental: Procedure: Compounds were prepared and diluted with DMSO to make 0.2 mM and 0.02 mM. Reference compound was diluted with DMSO to make 8-point 4-fold serial dilution, starting at 0.2 mM. One μl of compounds/high control/low control was transferred to the assay plate according to the plate map. Next, and by following the plate map, 100 μl of membrane stocks was dispensed into the plate followed by adding 100 μl of radio ligand. Plates were then sealed and were incubated at RT for 1 hrs. In the meantime, soak the Unifilter-96 GF/C filter plates with 50 μl of 0.5% BSA per well for at least 0.5 hour at room temperature. When binding assays are completed, filter the reaction mixture through GF/C plates using Perkin Elmer Filtermate Harvester, and then wash each plate for 4 times with cold wash buffer. Next, Dry the filter plates for 1 hour at 50 degrees and seal the bottom of the filter plate wells using Perkin Elmer Unifilter-96 backing seal tape. Next, add 50 μl of Perkin Elmer Microscint 20 cocktail. Seal the top of the filter plate with Perkin Elmer TopSeal-A sealing film. Using Perkin Elmer MicroBeta2 Reader count ^3H trapped on filter. Finally, analyze the data with GraphPad Prism 5. Calculate the “Inhibition [% Control]” using the equation: % Inh=(1−Background subtracted Assay value/Background subtracted HC value)*100.
The compound of the disclosure were tested in several hERG assays.

[1] = target: MLL1-WDR5 protein-protein interaction (Homo sapiens (Human), UniProt P61964); assay: WDR5 TR-FRET assay of inhibition against MLL1-WDR5 protein-protein interaction; type: binding
Experimental: WDR5 TR-FRET Assay Procedure: Stock compounds were transferred to the assay plate by Echo Liquid Handler. Reactions were performed in the assay buffer (1×PBS, 300 mM NaCl, 0.5 mM TCEP, 0.1% CHAPS) containing 5 nM WDR5 protein, 10 nM peptide (Ac-ARTEVHLRKS-[Ahx-Ahx] [C]-Alexa Fluor 488-NH2) and 0.25 nM Tb-anti His antibody (Tb-Ab) in 384-well white plate (PerkinElmer) with a final volume of 20 μl. Compounds were incubated with WDR5 protein for 30 min at room temperature. Plates were covered, protected from light and incubated for 60 min at room temperature after adding the peptide and Tb-Ab. EnVision Multimode Plate Reader (PerkinElmer) was used for the TR-FRET assay with excitation wavelength at 340 nm and emission wavelength at 495 and 520 nm. The ratio of the 520/495 wavelengths were used to assess the degree of the FRET signal. IC50 was calculated by fitting the inhibition data using XLfit software to sigmoidal dose-response model.
Biphenyl compound DDO-2084 was reported to be a small molecule inhibitor that can inhibit MLL1-WDR5 protein-protein interaction, reduce MLL1 enzyme catalytic activity, and downregulate the expression of Hox and Meis-1 genes (Eur. J. Med. Chem. 2016, 124, 480-489). DDO-2084 is used as a positive control compound.

MV-411 cells = assay: Anti-proliferative activity against leukemia cells (CellTiterGlo viability, 72 hrs); type: cell-based; conditions: MV4-11, MV-411 human acute monocytic leukemia cell
Experimental: Procedure: MV-411 or Molm-13 cells were seeded into 384 well plates at 2000 cells/well density in 50 uL according plate map and were allowed to naturally sediment by waiting about 30 min in Clean Bench. Next, plated cells were centrifuged for 1 min at 1000 rpm and the excess cells were transferred into the flasks for further culture. Cells in the assay plates were incubated (at least 4 hrs) at 37° C., 5% CO2 for next process followed by adding the compounds as the plate map indicated. The tests were performed in duplicates with treatment of compounds at 10 pts 3 fold titration in 384 well plates. Taxol was as positive control while DMSO as negative control. To rule out edge effect, the wells on the edge were not seeded and therefore one 384 well plate holds 13 compounds. Cells viability was measured 72 hrs after incubation with compounds and using CellTiterGlo (promega) viability assay according to manufactory's instruction to check the ATP production in each well.
Experiments on anti-proliferative activity against leukemia cells were conducted with some of the compounds of the invention.

[2] = Table 7, read-out: WDR5 TR-FRET Assay (IC50 nM)
[3] = WDR5 TR-FRET, 5 nM WDR5 protein, 10 nM peptide, read-out: MLL1-WDR5 PPI inhibitory activity

Sequence of hERG (Q12809 whole entry): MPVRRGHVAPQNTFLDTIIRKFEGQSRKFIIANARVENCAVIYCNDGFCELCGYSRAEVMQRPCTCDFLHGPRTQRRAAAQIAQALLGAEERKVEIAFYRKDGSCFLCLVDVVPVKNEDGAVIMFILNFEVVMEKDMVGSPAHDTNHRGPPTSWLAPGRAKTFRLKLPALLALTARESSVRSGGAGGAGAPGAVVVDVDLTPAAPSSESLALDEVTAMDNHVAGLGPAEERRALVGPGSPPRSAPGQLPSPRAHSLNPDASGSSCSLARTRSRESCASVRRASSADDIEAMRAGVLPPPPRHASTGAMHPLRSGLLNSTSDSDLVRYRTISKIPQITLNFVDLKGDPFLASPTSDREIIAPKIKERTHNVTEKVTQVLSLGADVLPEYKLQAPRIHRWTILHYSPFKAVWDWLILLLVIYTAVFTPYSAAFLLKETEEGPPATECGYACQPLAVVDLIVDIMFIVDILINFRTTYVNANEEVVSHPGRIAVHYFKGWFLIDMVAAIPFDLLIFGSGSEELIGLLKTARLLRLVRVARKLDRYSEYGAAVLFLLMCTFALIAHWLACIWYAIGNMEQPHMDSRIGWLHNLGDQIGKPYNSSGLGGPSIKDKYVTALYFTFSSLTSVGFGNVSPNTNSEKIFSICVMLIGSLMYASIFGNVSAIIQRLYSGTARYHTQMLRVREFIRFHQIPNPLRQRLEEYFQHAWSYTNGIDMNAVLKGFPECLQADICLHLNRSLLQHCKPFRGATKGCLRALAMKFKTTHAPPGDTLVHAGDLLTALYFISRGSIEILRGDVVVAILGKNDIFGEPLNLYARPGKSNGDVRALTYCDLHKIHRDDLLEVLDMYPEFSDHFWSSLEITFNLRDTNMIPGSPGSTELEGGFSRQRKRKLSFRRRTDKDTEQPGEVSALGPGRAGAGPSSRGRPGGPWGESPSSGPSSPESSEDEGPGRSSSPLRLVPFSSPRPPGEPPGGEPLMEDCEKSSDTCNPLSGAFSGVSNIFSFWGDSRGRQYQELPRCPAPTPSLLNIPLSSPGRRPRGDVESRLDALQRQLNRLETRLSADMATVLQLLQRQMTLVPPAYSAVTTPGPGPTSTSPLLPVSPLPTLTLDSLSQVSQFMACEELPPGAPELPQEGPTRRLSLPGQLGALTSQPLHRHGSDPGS

For CN1CCN(c2ccc(-n3cc(C(=O)NCCCN4CCOCC4)nn3)cc2NC(=O)c2ccc(F)c(C(F)(F)F)c2)CC1 [Example 21, 1-(3-(4-fluoro-3-(trifluoromethyl)benzamido)-4-(4-methylpiperazin-1-yl)phenyl)-N-(3-morpholinopropyl)-1H-1,2,3-triazole-4-carboxamide], the IC50 (hERG) was greater than 10000 nM.

Compound Cc1c(F)c([N+](=O)[O-])cc(C(=O)Nc2cc(-n3cc(C(=O)NCCCN4CCOCC4)nn3)ccc2N2CCN(C)CC2)c1Cl [Example 18, 1-[3-[(2-chloro-4-fluoro-3-methyl-5-nitro-benzoyl)amino]-4-(4-methylpiperazin-1-yl)phenyl]-N-(3-morpholinopropyl)triazole-4-carboxamide] has an IC50 (hERG) greater than 10000 nM.

CCN(CC)C(=O)c1cn(-c2cc(NC(=O)c3cc(N)c(F)c(C)c3Cl)c(N3C[C@@H](C)N(C)[C@@H](C)C3)cc2F)nn1 [Compound 29, 1-(5-(5-amino-2-chloro-4-fluoro-3-methylbenzamido)-2-fluoro-4-((3S,5R)-3,4,5-trimethylpiperazin-1-yl)phenyl)-N,N-diethyl-1H-1,2,3-triazole-4-carboxamide] gave an IC50 (hERG) of 3600 nM and a Ki (hERG) of 2040 nM.

Work on C[C@@H]1CN(c2cc(F)c(-c3ccnc(N(C)C)n3)cc2Nc2ncnc(Cl)c2N)C[C@H](C)N1C [DDO-2213_028, 6-chloro-N4-(5-(2-(dimethylamino)pyrimidin-4-yl)-4-fluoro-2-((3S,5R)-3,4,5-trimethylpiperazin-1-yl)phenyl)pyrimidine-4,5-diamine] yielded an IC50 [1, 2] of 51.8 nM and a GI50 (MV-411 cells; Table 7) greater than 200 µM.

Work on CCOC(=O)[C@H](C)OC(=O)c1cn(-c2ccc(N3CCN(C)CC3)c(NC(=O)c3cc(N)c(F)c(C)c3Cl)c2)nn1 [HYBI_013] yielded an IC50 [1, 3] of 19.4 nM and a GI50 (MV-411 cells; Table 6) of 2.46 µM.

C[C@@H]1CN(c2ncc(-c3cc(Nc4ncnc(Cl)c4N)c(N4CCN(C)[C@@H](C)C4)cc3F)cn2)C[C@H](C)O1 [DDO-2213_023, 6-chloro-N4-(5-(2-((2S,6R)-2,6-dimethylmorpholino)pyrimidin-5-yl)-2-((S)-3,4-dimethylpiperazin-1-yl)-4-fluorophenyl)pyrimidine-4,5-diamine] gave an IC50 [1, 2] of 3.56 nM and a GI50 (MV-411 cells; Table 7) of 2.79 µM.

In the case of C[C@@H]1CN(c2ccc(-c3cc(CNC4CCCCC4)ccc3F)cc2Nc2ncnc(Cl)c2N)C[C@H](C)N1C [DDO-2213_030, 6-chloro-N4-(5′-((cyclohexylamino)methyl)-2′-fluoro-4-((3S,5R)-3,4,5-trimethylpiperazin-1-yl)-[1,1′-biphenyl]-3-yl)pyrimidine-4,5-diamine], the IC50 [1, 2] is reported as 418 nM and the GI50 (MV-411 cells; Table 7) is reported as 2.43 µM.

With Cc1c(F)c(N)cc(C(=O)Nc2cc(-n3cc(C(=O)NC4CCOCC4)nn3)c(F)cc2N2C[C@@H](C)N(C)[C@@H](C)C2)c1Cl [HYBI_086] the IC50 [1, 3] was 3.99 nM and the GI50 (MV-411 cells; Table 6) was 19.7 µM.

Cc1c(F)c(N)cc(C(=O)Nc2cc(-n3cc(C(=O)NCCCN4CCOCC4)nn3)ccc2N2C[C@@H](C)N(C)[C@@H](C)C2)c1Cl [HYBI_021] showed an IC50 [1, 3] of 7.09 nM and a GI50 (MV-411 cells; Table 6) of 25.1 µM.

For Cc1c(F)c(N)cc(C(=O)Nc2cc(-n3cc(C(=O)OC4(C)CCC4)nn3)ccc2N2CCN(C)CC2)c1Cl [HYBI_018], the IC50 [1, 3] was 16.8 nM and the GI50 (MV-411 cells; Table 6) was 5.99 µM.

With CN1CCN(c2ccc(-n3cc(C(=O)NCCCN4CCOCC4)nn3)cc2NC(=O)c2nn(C)c3ccccc23)CC1 [HYBI_050] the IC50 [1, 3] was 5560 nM and the GI50 (MV-411 cells; Table 6) was 10.7 µM.

With C[C@@H]1CN(c2cc(F)c(-c3ccc(C(=O)N(C)C)cc3)cc2Nc2ncnc(Cl)c2N)C[C@H](C)N1C [DDO-2213_002, 4-[5-[(5-amino-6-chloro-pyrimidin-4-yl)amino]-2-fluoro-4-[(3R,5S)-3,4,5-trimethylpiperazin-1-yl]phenyl]-N,N-dimethyl-benzamide] the IC50 [1, 2] was 55.5 nM and the GI50 (MV-411 cells; Table 7) was 15.6 µM.

For CN1CCN(c2ccc(-n3cc(C(=O)NCCCN4CCOCC4)nn3)cc2NC(=O)c2ccc(F)c([N+](=O)[O-])c2)CC1 [Example 19, 1-(3-(4-fluoro-3-nitrobenzamido)-4-(4-methylpiperazin-1-yl)phenyl)-N-(3-morpholinopropyl)-1H-1,2,3-triazole-4-carboxamide], the IC50 (hERG) was greater than 10000 nM.
